US9867857B2, “Acetobacter and gluconacetobacter strains and their metabolites for use in inhibiting xanthine oxidase” (Food Industry Research And Development Institute, priority 2014, dated 2018)

System: ICR mice
Assay: Experimental uricemia: potassium oxonate-induced high serum uric acid
Assay type: in vivo
Details: potassium oxonate 400 mg/kg + allopurinol 10 mg/kg fed, 1 h after dosing
Method: Acetobacter pasteurianus strain AHU01 was inoculated onto an M1A plate and cultured for 2 days at 30° C. The plate was washed with 7 ml of sterile water as seed broth. 0.5 ml of the seed broth was inoculated into 50 ml of a custom media (1% soy peptone, 0.2% yeast extract, 3% glucose, 0.2% malt extract, and 3% fructose) in a 250 ml triangular flask and incubated with shaking at 150 rpm for 7 days at 30° C. The medium was then collected and centrifuged at 3000 rpm for 15 minutes. Following centrifugation, the supernatant was collected, lyophilized, and freeze-dried to form a solid fermentation product for use in animal experiments.
ICR mice were used as experimental animals. Potassium oxonate, a uricase inhibitor, was used to induce a high level of uric acid in the serum of the mice. Mice were fasted for one hour and then fed saline or potassium oxonate (400 mg/kg) via a feeding tube. After one hour, potassium oxonate-treated mice were fed saline, allopurinol (10 mg/kg), or the Acetobacter pasteurianus strain AHU01 fermentation product (150 mg or 200 mg resuspended in saline per mouse) prepared as described above. Ten animals were used for each experimental group and for the control group. The animals were sacrificed after one hour and the level of uric acid in their serum was analyzed.

Structure (SMILES): Oc1ncnc2[nH]ncc12 [allopurinol]
- serum uric acid concentration: 2.82 ± 0.28 mg/dL
